Data set [1] relates to triple-negative breast cancer cells (TNBC). The data set can be described thus: Growth inhibition of TNBC cells. The format is cell-based. The text has this: FIGS. 10A & 10B show effects of TK208 against cancer cells.
(§1) TNBC is difficult to be treated and currently there are no good drugs available in the market.
In addition, another tris-benzmaide compound TK208 was synthesized and tested against breast cancer and ovarian cancer cell lines (FIGS. 10-15). […] These compounds (e.g., TK41, TK208, TK308 (FIG. 21), TK309 (FIG. 22), TK314, TK315) are extremely potent compounds that inhibit tumor growth and kill breast and ovarian cancer cells and as such, they are superb therapeutic candidates for such diseases.

Data set [2] relates to tumor growth. Briefly: Animal studies with TK41. The format is in vivo. As to the method: FIGS. 4A-4C show the effect of TK41 on estrogen receptor-positive (ER+ve) tumor growth. ZR75 (ER+ve; n=18) xenografts were established in nude mice and treated with either vehicle (circle markers) or 10 mg/kg/day TK41 (square markers) administered as an oral gavage in Captisol®. Comparison of mice body weights is shown in bar graphs (FIG. 4C). *p<0.05; **** p<0.001.
FIGS. 5A-5C show the effect of TK41 on triple negative breast cancer xenograft tumors. MDA-MB-231 (TNBC; n=10) xenografts were established in nude mice and treated with either vehicle (circle markers) or 10 mg/kg/day TK41 (square markers) administered as an oral gavage in Captisol®. Comparison of mice body weights is shown in bar graphs (FIG. 5A). Photographs of individual tumors at necropsy supports the effect of TK41 on TNBC. *p<0.05; **** p<0.001.
as §1

Data set [3] relates to ERMT (therapy resistant) xenografts. The data set can be described thus: ERMT therapy resistant xenografts. The format is in vivo, nude mice. As to conditions: 10 mg/kg/day oral. As to the method:
FIGS. 8A & 8B show the effect of TK41 (i.e., ERX-41) on therapy resistant cancer cells. ERMT (therapy resistant) xenografts (n=8) were established in nude mice and treated with vehicle (circle markers) or 10 mg/kg/day/oral ERX-41 (square markers).

Data set [4] addresses T1, LIPA (Homo sapiens, UniProt P38571).
T1 construct: expressed in transfected cells; host or cells: SUM-159 cells with LIPA KO, reconstituted with LIPA plasmid constructs
Briefly: Biotinylated ERX-41 pulldown. The format is binding. The conditions noted are these: WT-LIPA and H274Y MT-LIPA, not DLXXLL or L242P MT-LIPA. An excerpt:
FIGS. 39A-N: (FIGS. 39A-E) Predicted binding mode of ERX-41 (colored in green) on the human lysosomal acid lipase (LAL, PDB code: 6V7N, LXXLL (SEQ ID NO: 1) domain colored in orange). (FIG. 39F) PDB structure of LAL protein showing relative positions of the catalytic domain (with H274Y MT) and the LXXLL (SEQ ID NO: 1) domain (L242P MT). (FIG. 39G) Evaluation of the effect of ERX-41 and lalistat (known lipase inhibitor) on lipase activity of parental SUM-159 (WT) and SUM-159 cells with LIPA KO. (FIG. 39H) Evaluation of basal lipase activity in parental SUM-159 (WT), SUM-159 cells with LIPA KO (KO), SUM-159 cells with LIPA KO and with reconstitution of either WT LIPA (KO+WT), H274Y MT-LIPA (KO+H274Y), DLXXLL (SEQ ID NO: 2) MT-LIPA (KO+DLXXLL (SEQ ID NO: 2)) or L242P MT-LIPA (KO+L242P). Protein expression of LAL and control vinculin in these cells are shown below (FIG. 391) Cellular lysates from described SUM-159 cells were incubated with biotinylated ERX-11 or biotinylated ERX-41 and then subject to a streptavidin column. Elutants were then evaluated for LIPA pulldown by western blotting. (FIG. 39J) Dose response curve to increasing concentrations of ERX-41 in described SUM-159 cells. (FIGS. 39K-M) Effect of vehicle or 1 μM ERX-41 on induction of UPR genes at the protein level (FIG. 39K) or RNA level (FIGS. 39L-M). […]

Consider one compound from US12275685B2, “Oligo-benzamide analogs and their use in cancer treatment” (Board of Regents, The University of Texas System, priority 2018, dated 2025).

One may read the IC50 as the concentration at which inhibition is half-maximal. Low values mean inhibition by little substance, high ones a need for much substance.

T1 sequence (P38571 22-399): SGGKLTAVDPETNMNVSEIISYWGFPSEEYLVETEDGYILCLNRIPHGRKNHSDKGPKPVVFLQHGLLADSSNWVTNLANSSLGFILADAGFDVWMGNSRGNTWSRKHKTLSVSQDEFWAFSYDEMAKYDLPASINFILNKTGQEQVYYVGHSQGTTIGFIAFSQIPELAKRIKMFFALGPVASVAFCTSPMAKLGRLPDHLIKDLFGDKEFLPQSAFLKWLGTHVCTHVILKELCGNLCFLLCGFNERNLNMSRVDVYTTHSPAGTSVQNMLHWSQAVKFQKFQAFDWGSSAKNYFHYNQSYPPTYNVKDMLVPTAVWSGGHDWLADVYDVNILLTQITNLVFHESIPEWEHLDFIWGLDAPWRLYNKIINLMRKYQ

As to `CC(C)COc1cc(C(=O)Nc2ccc(C(=O)N[C@H]3CC[C@H](C)CC3)cc2OCC(C)C)ccc1NC(=O)c1ccc([N+](=O)[O-])c(OCCO)c1` [TK41], in data set [1], the IC50 is less than 100 nM. For the same compound, in data set [2] (animal studies), the “side effects or toxicity” value is “no apparent side effects or toxicity” and the tumor growth inhibition result is reported as “outstanding tumor growth inhibition”. In addition, in data set [2] (mouse, in vivo, po), the oral availability entry was “orally available”. The “activity against ERMT tumors” value in data set [3] is “has activity against ERMT tumors”. Moreover, the “interaction with LIPA” value in data set [4] is on record as “direct interaction”.
